Cross-reactivity and binding data for six compounds are collected here from paper PMC7231327 (2020).

The subject of experiment [1] is H-DNA 1 (DNA, aptamer) GCGGGCGGTTGTATAGCGGTTTTTTCTCACACGAATTCATCTGAC
The experiment can be described thus: competitive fluorescent lateral flow strip. The conditions noted are these: for Cross-reactivity: T-DNA competes, [AMP] at IC50/[M] at IC50, AMP = 100.

Experiment [2] relates to H-DNA 1' (DNA, aptamer) GCGGGCGGTTGTATAGCGGTTTTTTCTCACACGAATTCATCTGAC
The experiment can be described thus: competitive fluorescent lateral flow strip. The conditions noted are these: T-DNA competes on T line; AMP 150 and 200 ng/L; slight signal change.

In the case of `CN(C)[C@@H]1C(=O)C(C(N)=O)=C(O)[C@@]2(O)C(=O)C3=C(O)c4c(O)cccc4[C@@](C)(O)[C@H]3C[C@@H]12`, the Cross-reactivity in experiment [1] (n = 3, RSD 2.34%) stood at 0.67%.

`CC1(C)S[C@@H]2[C@H](NC(=O)Cc3ccccc3)C(=O)N2[C@H]1C(=O)O`: the Cross-reactivity in experiment [1] (n = 3, RSD 3.56%) is 7.40%.

`O=C(N[C@H](CO)[C@H](O)c1ccc([N+](=O)[O-])cc1)C(Cl)Cl` showed a Cross-reactivity in experiment [1] (n = 3, RSD 4.34%) of 6.60%.

In experiment [1] (n = 3, RSD 2.76%), `CN(C)[C@@H]1C(=O)C(C(N)=O)=C(O)[C@@]2(O)C(=O)C3=C(O)c4c(O)cccc4[C@@](C)(O)[C@H]3[C@H](O)[C@@H]12` gave a Cross-reactivity of 0.88%.

`NC[C@H]1O[C@H](O[C@H]2[C@H](O)[C@@H](O[C@H]3O[C@H](CO)[C@@H](O)[C@H](N)[C@H]3O)[C@H](N)C[C@@H]2N)[C@H](O)[C@@H](O)[C@@H]1O` displayed a Cross-reactivity in experiment [1] (n = 3, RSD 3.89%) of 5.53%.

Turning to `CC1(C)S[C@@H]2[C@H](NC(=O)[C@H](N)c3ccccc3)C(=O)N2[C@H]1C(=O)O`, the binding result was “weak” in experiment [2] and “yes” in experiment [1] (T-DNA (complementary strand) competes on T line, AMP 50-300 ng/L).
